O=c1cc(CBr)c2ccccc2[nH]1
solubility (mole fraction)
Settings | 278.15 K | 283.15 K | 288.15 K | 293.15 K | 298.15 K | 303.15 K | 308.15 K | 313.15 K | 318.15 K
in NMP | 0.00539 | 0.00606 | 0.00705 | 0.0081 | 0.00928 | 0.0105 | 0.0119 | 0.0135 | 0.0151
in ethanol | 0.00019 | 0.000211 | 0.000235 | 0.000261 | 0.000286 | 0.000316 | 0.000347 | 0.000378 | 0.000411
in isopropanol | 0.000152 | 0.000175 | 0.000202 | 0.000229 | 0.00026 | 0.000293 | 0.000328 | 0.000365 | 0.000406
in n-propanol | 0.000242 | 0.000269 | 0.000297 | 0.000325 | 0.000357 | 0.00039 | 0.00043 | 0.000466 | 0.000505
in water | 4.78e-06 | 6.58e-06 | 9.12e-06 | 1.25e-05 | 1.67e-05 | 2.16e-05 | 2.88e-05 | 3.76e-05 | 4.76e-05

— BigSolDB 2.1
